# Results reported in the supplement of paper PMC10307832.
# Tests used:
# Assay in all cases: relative viability (nuclei count vs DMSO), 5 days (fraction); higher = more cells survive
# [1] = test system: ABC-1
# Outline: (§1)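 One day after seeding in 1536-well plates, lung cancer cell lines were dosed by pin tool. Dosing was either single-drug or a fixed anchor-drug dose plus five library-drug doses (not always all listed) in √10 steps. After 5 days, nuclei were stained in one fix-and-stain step and counted on 4× images, and relative viability is the nuclei count of treated wells over that of vehicle wells, given as the median of duplicate plates.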
# [2] = test system: NCI-H2087
# Outline: as §1
# [3] = test system: NCI-H2228
# Outline: as §1
# [4] = test system: LC-2-ad
# Outline: as §1
# [5] = test system: NCI-H3122
# Outline: as §1
# [6] = test system: CAL-12T
# Outline: as §1
# [7] = test system: NCI-H460
# Outline: as §1
# [8] = test system: PC-3 [JPC-3]
# Outline: as §1
# [9] = test system: NCI-H1944
# Outline: as §1
# [10] = test system: NCI-H2405
# Outline: as §1
# [11] = test system: RERF-LC-KJ
# Outline: as §1
# [12] = test system: NCI-H1755
# Outline: as §1
# [13] = test system: LU99A
# Outline: as §1
# [14] = test system: NCI-H1395
# Outline: as §1
# [15] = test system: NCI-H2170
# Outline: as §1
# [16] = test system: NCI-H1734
# Outline: as §1
# [17] = test system: NCI-H1793
# Outline: as §1
# [18] = test system: UMC-11
# Outline: as §1
# [19] = test system: LOU-NH91
# Outline: as §1
# [20] = test system: NCI-H1651
# Outline: as §1
# [21] = test system: ChaGo-K-1
# Outline: as §1
smiles,measurement,setting,value
Oc1nc(-c2ccc(C(F)(F)F)cc2)nc2c1CSCC2 [XAV939] + CCNC(=O)c1noc(-c2cc(C(C)C)c(O)cc2O)c1-c1ccc(CN2CCOCC2)cc1 [Luminespib] (partner 0.01 µM),relative viability,[1]; first compound 0.08 µM,0.778
same,relative viability,[1]; first compound 0.253 µM,0.584
same,relative viability,[1]; first compound 0.8 µM,0.795
same,relative viability,[1]; first compound 2.53 µM,0.405
same,relative viability,[2]; first compound 0.08 µM,0.165
same,relative viability,[2]; first compound 0.253 µM,0.128
same,relative viability,[2]; first compound 0.8 µM,0.152
same,relative viability,[2]; first compound 2.53 µM,0.142
same,relative viability,[3]; first compound 0.08 µM,0.156
same,relative viability,[3]; first compound 0.253 µM,0.158
same,relative viability,[3]; first compound 0.8 µM,0.152
same,relative viability,[3]; first compound 2.53 µM,0.134
same,relative viability,[4]; first compound 0.08 µM,1.2
same,relative viability,[4]; first compound 0.253 µM,0.938
same,relative viability,[4]; first compound 0.8 µM,0.973
same,relative viability,[4]; first compound 2.53 µM,0.853
same,relative viability,[5]; first compound 0.08 µM,0.0855
same,relative viability,[5]; first compound 0.253 µM,0.0791
same,relative viability,[5]; first compound 0.8 µM,0.0658
same,relative viability,[5]; first compound 2.53 µM,0.0658
same,relative viability,[6]; first compound 0.08 µM,0.54
same,relative viability,[6]; first compound 0.253 µM,0.363
same,relative viability,[6]; first compound 0.8 µM,0.363
same,relative viability,[6]; first compound 2.53 µM,0.3
same,relative viability,[7]; first compound 0.08 µM,0.0319
same,relative viability,[7]; first compound 0.253 µM,0.0395
same,relative viability,[7]; first compound 0.8 µM,0.0405
same,relative viability,[7]; first compound 2.53 µM,0.0235
same,relative viability,[8]; first compound 0.08 µM,0.829
same,relative viability,[8]; first compound 0.253 µM,0.647
same,relative viability,[8]; first compound 0.8 µM,0.68
same,relative viability,[8]; first compound 2.53 µM,0.635
same,relative viability,[9]; first compound 0.08 µM,0.843
same,relative viability,[9]; first compound 0.253 µM,0.676
same,relative viability,[9]; first compound 0.8 µM,0.788
same,relative viability,[9]; first compound 2.53 µM,0.595
same,relative viability,[10]; first compound 0.08 µM,0.657
same,relative viability,[10]; first compound 0.253 µM,0.673
same,relative viability,[10]; first compound 0.8 µM,0.599
same,relative viability,[10]; first compound 2.53 µM,0.588
same,relative viability,[11]; first compound 0.08 µM,1.21
same,relative viability,[11]; first compound 0.253 µM,1.06
same,relative viability,[11]; first compound 0.8 µM,1.07
same,relative viability,[11]; first compound 2.53 µM,0.844
same,relative viability,[12]; first compound 0.08 µM,0.522
same,relative viability,[12]; first compound 0.253 µM,0.457
same,relative viability,[12]; first compound 0.8 µM,0.361
same,relative viability,[12]; first compound 2.53 µM,0.488
same,relative viability,[13]; first compound 0.08 µM,0.277
same,relative viability,[13]; first compound 0.253 µM,0.253
same,relative viability,[13]; first compound 0.8 µM,0.254
same,relative viability,[13]; first compound 2.53 µM,0.195
same,relative viability,[14]; first compound 0.08 µM,0.614
same,relative viability,[14]; first compound 0.253 µM,0.725
same,relative viability,[14]; first compound 0.8 µM,0.721
same,relative viability,[14]; first compound 2.53 µM,0.662
same,relative viability,[15]; first compound 0.08 µM,0.764
same,relative viability,[15]; first compound 0.253 µM,0.754
same,relative viability,[15]; first compound 0.8 µM,0.704
same,relative viability,[15]; first compound 2.53 µM,0.529
same,relative viability,[16]; first compound 0.08 µM,0.223
same,relative viability,[16]; first compound 0.253 µM,0.216
same,relative viability,[16]; first compound 0.8 µM,0.185
same,relative viability,[16]; first compound 2.53 µM,0.162
same,relative viability,[17]; first compound 0.08 µM,0.223
same,relative viability,[17]; first compound 0.253 µM,0.186
same,relative viability,[17]; first compound 0.8 µM,0.176
same,relative viability,[17]; first compound 2.53 µM,0.185
same,relative viability,[18]; first compound 0.08 µM,1.04
same,relative viability,[18]; first compound 0.253 µM,0.973
same,relative viability,[18]; first compound 0.8 µM,1.02
same,relative viability,[18]; first compound 2.53 µM,0.886
same,relative viability,[19]; first compound 0.08 µM,0.322
same,relative viability,[19]; first compound 0.253 µM,0.337
same,relative viability,[19]; first compound 0.8 µM,0.432
same,relative viability,[19]; first compound 2.53 µM,0.295
same,relative viability,[20]; first compound 0.08 µM,0.988
same,relative viability,[20]; first compound 0.253 µM,0.699
same,relative viability,[20]; first compound 0.8 µM,0.896
same,relative viability,[20]; first compound 2.53 µM,0.725
same,relative viability,[21]; first compound 0.08 µM,0.586
same,relative viability,[21]; first compound 0.253 µM,0.384
same,relative viability,[21]; first compound 0.8 µM,0.508
same,relative viability,[21]; first compound 2.53 µM,0.523
C=C1C(=O)O[C@@H](CCCCCCCC)[C@@H]1C(=O)O [C-75] + CCNC(=O)c1noc(-c2cc(C(C)C)c(O)cc2O)c1-c1ccc(CN2CCOCC2)cc1 [Luminespib] (partner 0.01 µM),relative viability,[1]; first compound 0.253 µM,0.389
same,relative viability,[1]; first compound 0.8 µM,0.51
same,relative viability,[1]; first compound 2.53 µM,0.364
same,relative viability,[1]; first compound 8 µM,0.378
same,relative viability,[2]; first compound 0.08 µM,0.162
same,relative viability,[2]; first compound 0.253 µM,0.218
same,relative viability,[2]; first compound 0.8 µM,0.141
same,relative viability,[2]; first compound 2.53 µM,0.166
same,relative viability,[2]; first compound 8 µM,0.217
same,relative viability,[3]; first compound 0.08 µM,0.135
same,relative viability,[3]; first compound 0.253 µM,0.161
same,relative viability,[3]; first compound 0.8 µM,0.116
same,relative viability,[3]; first compound 2.53 µM,0.181
same,relative viability,[3]; first compound 8 µM,0.283
same,relative viability,[4]; first compound 0.08 µM,1.06
same,relative viability,[4]; first compound 0.253 µM,0.801
same,relative viability,[4]; first compound 0.8 µM,0.95
same,relative viability,[4]; first compound 2.53 µM,0.797
same,relative viability,[4]; first compound 8 µM,0.91
same,relative viability,[5]; first compound 0.08 µM,0.0952
same,relative viability,[5]; first compound 0.253 µM,0.128
same,relative viability,[5]; first compound 0.8 µM,0.0733
same,relative viability,[5]; first compound 2.53 µM,0.0938
same,relative viability,[5]; first compound 8 µM,0.131
same,relative viability,[6]; first compound 0.08 µM,0.898
same,relative viability,[6]; first compound 0.253 µM,0.365
same,relative viability,[6]; first compound 0.8 µM,0.178
same,relative viability,[6]; first compound 2.53 µM,0.405
same,relative viability,[6]; first compound 8 µM,0.376
same,relative viability,[7]; first compound 0.08 µM,0.0308
same,relative viability,[7]; first compound 0.253 µM,0.0239
same,relative viability,[7]; first compound 0.8 µM,0.0329
same,relative viability,[7]; first compound 8 µM,0.0319
same,relative viability,[8]; first compound 0.08 µM,0.678
same,relative viability,[8]; first compound 0.253 µM,0.667
same,relative viability,[8]; first compound 0.8 µM,0.739
same,relative viability,[8]; first compound 2.53 µM,0.533
same,relative viability,[8]; first compound 8 µM,0.895
same,relative viability,[9]; first compound 0.08 µM,0.777
same,relative viability,[9]; first compound 0.253 µM,0.642
same,relative viability,[9]; first compound 0.8 µM,0.684
same,relative viability,[9]; first compound 8 µM,0.761
same,relative viability,[10]; first compound 0.08 µM,0.822
same,relative viability,[10]; first compound 0.253 µM,0.478
same,relative viability,[10]; first compound 0.8 µM,0.716
same,relative viability,[10]; first compound 2.53 µM,0.558
same,relative viability,[10]; first compound 8 µM,0.869
same,relative viability,[11]; first compound 0.08 µM,1.31
same,relative viability,[11]; first compound 0.253 µM,1.22
same,relative viability,[11]; first compound 0.8 µM,1.23
same,relative viability,[11]; first compound 2.53 µM,1.08
same,relative viability,[11]; first compound 8 µM,1.11
same,relative viability,[12]; first compound 0.08 µM,0.384
same,relative viability,[12]; first compound 0.253 µM,0.489
same,relative viability,[12]; first compound 0.8 µM,0.465
same,relative viability,[12]; first compound 2.53 µM,0.467
same,relative viability,[12]; first compound 8 µM,0.416
same,relative viability,[13]; first compound 0.08 µM,0.209
same,relative viability,[13]; first compound 0.253 µM,0.297
same,relative viability,[13]; first compound 0.8 µM,0.251
same,relative viability,[13]; first compound 2.53 µM,0.252
same,relative viability,[13]; first compound 8 µM,0.286
same,relative viability,[14]; first compound 0.08 µM,0.613
same,relative viability,[14]; first compound 0.253 µM,0.574
same,relative viability,[14]; first compound 0.8 µM,0.713
same,relative viability,[14]; first compound 2.53 µM,0.755
same,relative viability,[14]; first compound 8 µM,0.686
same,relative viability,[15]; first compound 0.08 µM,0.551
same,relative viability,[15]; first compound 0.253 µM,0.599
same,relative viability,[15]; first compound 0.8 µM,0.785
same,relative viability,[15]; first compound 2.53 µM,0.407
same,relative viability,[15]; first compound 8 µM,0.669
same,relative viability,[16]; first compound 0.08 µM,0.201
same,relative viability,[16]; first compound 0.253 µM,0.192
same,relative viability,[16]; first compound 0.8 µM,0.178
same,relative viability,[16]; first compound 2.53 µM,0.184
same,relative viability,[16]; first compound 8 µM,0.185
same,relative viability,[17]; first compound 0.08 µM,0.18
same,relative viability,[17]; first compound 0.253 µM,0.148
same,relative viability,[17]; first compound 0.8 µM,0.141
same,relative viability,[17]; first compound 2.53 µM,0.264
same,relative viability,[17]; first compound 8 µM,0.224
same,relative viability,[18]; first compound 0.08 µM,0.992
same,relative viability,[18]; first compound 0.253 µM,1.01
same,relative viability,[18]; first compound 0.8 µM,1.03
same,relative viability,[18]; first compound 2.53 µM,0.712
same,relative viability,[18]; first compound 8 µM,0.742
same,relative viability,[19]; first compound 0.08 µM,0.307
same,relative viability,[19]; first compound 0.253 µM,0.346
same,relative viability,[19]; first compound 0.8 µM,0.344
same,relative viability,[19]; first compound 2.53 µM,0.29
same,relative viability,[19]; first compound 8 µM,0.32
same,relative viability,[20]; first compound 0.08 µM,0.817
same,relative viability,[20]; first compound 0.253 µM,0.939
same,relative viability,[20]; first compound 0.8 µM,0.829
same,relative viability,[20]; first compound 2.53 µM,0.672
same,relative viability,[20]; first compound 8 µM,0.934
same,relative viability,[21]; first compound 0.08 µM,0.524
same,relative viability,[21]; first compound 0.253 µM,0.587
same,relative viability,[21]; first compound 0.8 µM,0.598
same,relative viability,[21]; first compound 2.53 µM,0.638
same,relative viability,[21]; first compound 8 µM,0.478
